Measurements from PubChem BioAssay (NCI).
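Cultured in 96-well plates, cells were exposed to test compound for 48 hours across five concentrations. Here, GI50 denotes the concentration required for 50% inhibition of growth. TGI denotes the concentration required for complete inhibition of growth.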

Columns and labels:
Test in all cases: NCI-60 cell line screen, 48 h
SF-295 CNS = system: SF-295 CNS
SK-MEL-2 melanoma = system: SK-MEL-2 melanoma
TK-10 renal = system: TK-10 renal
NCI-H226 lung = system: NCI-H226 lung
COLO 205 colon = system: COLO 205 colon
LOX IMVI melanoma = system: LOX IMVI melanoma
MOLT-4 leukemia = system: MOLT-4 leukemia
PC-3 prostate = system: PC-3 prostate
HCC-2998 colon = system: HCC-2998 colon
BT-549 breast = system: BT-549 breast
NCI-H23 lung = system: NCI-H23 lung
CCRF-CEM leukemia = system: CCRF-CEM leukemia
NCI/ADR-RES ovarian = system: NCI/ADR-RES ovarian
SF-268 CNS = system: SF-268 CNS
T-47D breast = system: T-47D breast
U251 CNS = system: U251 CNS
HL-60(TB) leukemia = system: HL-60(TB) leukemia
HOP-62 NSCLC = system: HOP-62 NSCLC
ACHN renal = system: ACHN renal
OVCAR-8 ovarian = system: OVCAR-8 ovarian
RXF 393 renal = system: RXF 393 renal
786-0 renal = system: 786-0 renal
OVCAR-3 ovarian = system: OVCAR-3 ovarian
EKVX NSCLC = system: EKVX NSCLC
HS 578T breast = system: HS 578T breast
DU-145 prostate = system: DU-145 prostate
SNB-19 CNS = system: SNB-19 CNS
HCT-15 colon = system: HCT-15 colon
UO-31 renal = system: UO-31 renal
IGROV1 ovarian = system: IGROV1 ovarian
MDA-MB-231 breast = system: MDA-MB-231 breast
NCI-H522 lung = system: NCI-H522 lung
SN12C renal = system: SN12C renal
SR leukemia = system: SR leukemia
OVCAR-4 ovarian = system: OVCAR-4 ovarian
K-562 leukemia = system: K-562 leukemia
UACC-257 melanoma = system: UACC-257 melanoma
HOP-92 NSCLC = system: HOP-92 NSCLC
M14 melanoma = system: M14 melanoma
SK-MEL-28 melanoma = system: SK-MEL-28 melanoma
A549 NSCLC = system: A549 NSCLC
SK-OV-3 ovarian = system: SK-OV-3 ovarian
OVCAR-5 ovarian = system: OVCAR-5 ovarian
A498 renal = system: A498 renal
UACC-62 melanoma = system: UACC-62 melanoma
MDA-MB-435 = system: MDA-MB-435

O=C1c2cccc(NCCN=Cc3cc(O)ccc3O)c2C(=O)c2c(NCCN=Cc3cc(O)ccc3O)cccc21
GI50 (SF-295 CNS): 1360 nM | TGI (SF-295 CNS): 4240 nM | GI50 (SK-MEL-2 melanoma): 2020 nM | TGI (SK-MEL-2 melanoma): 3910 nM | GI50 (TK-10 renal): 2210 nM | TGI (TK-10 renal): 5800 nM | GI50 (NCI-H226 lung): 1210 nM | TGI (NCI-H226 lung): 3620 nM | GI50 (COLO 205 colon): 495 nM | TGI (COLO 205 colon): 1940 nM | GI50 (LOX IMVI melanoma): 762 nM | TGI (LOX IMVI melanoma): 2250 nM | GI50 (MOLT-4 leukemia): 319 nM | TGI (MOLT-4 leukemia): 1460 nM | GI50 (PC-3 prostate): 1170 nM | TGI (PC-3 prostate): 3970 nM | GI50 (HCC-2998 colon): 1390 nM | TGI (HCC-2998 colon): 2930 nM | GI50 (BT-549 breast): 1890 nM | TGI (BT-549 breast): 7770 nM | GI50 (NCI-H23 lung): 1440 nM | TGI (NCI-H23 lung): 3490 nM | GI50 (CCRF-CEM leukemia): 351 nM | TGI (CCRF-CEM leukemia): 1630 nM | GI50 (NCI/ADR-RES ovarian): 13400 nM | TGI (NCI/ADR-RES ovarian): 35900 nM | GI50 (SF-268 CNS): 776 nM | TGI (SF-268 CNS): 3250 nM | GI50 (T-47D breast): 2350 nM | TGI (T-47D breast): 7350 nM | GI50 (U251 CNS): 739 nM | TGI (U251 CNS): 2560 nM | GI50 (HL-60(TB) leukemia): 1630 nM | TGI (HL-60(TB) leukemia): 4190 nM | GI50 (HOP-62 NSCLC): 1280 nM | TGI (HOP-62 NSCLC): 4060 nM | GI50 (ACHN renal): 2050 nM | TGI (ACHN renal): 8930 nM | GI50 (OVCAR-8 ovarian): 884 nM | TGI (OVCAR-8 ovarian): 3210 nM | GI50 (RXF 393 renal): 1430 nM | TGI (RXF 393 renal): 2960 nM | GI50 (786-0 renal): 1880 nM | TGI (786-0 renal): 4690 nM | GI50 (OVCAR-3 ovarian): 1630 nM | TGI (OVCAR-3 ovarian): 4280 nM | GI50 (EKVX NSCLC): 1800 nM | TGI (EKVX NSCLC): 5770 nM | GI50 (HS 578T breast): 1030 nM | TGI (HS 578T breast): 3780 nM | GI50 (DU-145 prostate): 1390 nM | TGI (DU-145 prostate): 5430 nM | GI50 (SNB-19 CNS): 1550 nM | TGI (SNB-19 CNS): 5100 nM | GI50 (HCT-15 colon): 2840 nM | TGI (HCT-15 colon): 10500 nM | GI50 (UO-31 renal): 1710 nM | TGI (UO-31 renal): 6130 nM | GI50 (IGROV1 ovarian): 1190 nM | TGI (IGROV1 ovarian): 4590 nM | GI50 (MDA-MB-231 breast): 877 nM | TGI (MDA-MB-231 breast): 2250 nM | GI50 (NCI-H522 lung): 1330 nM | TGI (NCI-H522 lung): 3240 nM | GI50 (SN12C renal): 737 nM | TGI (SN12C renal): 3900 nM | GI50 (SR leukemia): 601 nM | TGI (SR leukemia): 3100 nM | GI50 (OVCAR-4 ovarian): 573 nM | TGI (OVCAR-4 ovarian): 2640 nM | GI50 (K-562 leukemia): 1450 nM | TGI (K-562 leukemia): 3900 nM | GI50 (UACC-257 melanoma): 3100 nM | TGI (UACC-257 melanoma): 10800 nM | GI50 (HOP-92 NSCLC): 1290 nM | TGI (HOP-92 NSCLC): 4870 nM | GI50 (M14 melanoma): 2010 nM | TGI (M14 melanoma): 4590 nM | GI50 (SK-MEL-28 melanoma): 1770 nM | TGI (SK-MEL-28 melanoma): 3660 nM | GI50 (A549 NSCLC): 1510 nM | TGI (A549 NSCLC): 4240 nM | GI50 (SK-OV-3 ovarian): 2340 nM | TGI (SK-OV-3 ovarian): 7630 nM | GI50 (OVCAR-5 ovarian): 2120 nM | TGI (OVCAR-5 ovarian): 5140 nM | GI50 (A498 renal): 1410 nM | TGI (A498 renal): 3100 nM | GI50 (UACC-62 melanoma): 1680 nM | TGI (UACC-62 melanoma): 3570 nM | GI50 (MDA-MB-435): 1530 nM | TGI (MDA-MB-435): 3080 nM
